The results in this text go back to US6576600B1, “Detergent” (Tokuyama Corporation, priority 1999, dated 2003).

The series can be described thus: Solubility / compatibility of the organic solvents in water at 60° C. The series is classed as physicochemical. As for the experimental part:
The above component (A) in the present invention is a polar organic solvent having low compatibility with water. The expression “low compatibility with water” means that only a small amount of the component dissolves in water, the solubility in water at 60° C., that is, the proportion of a portion soluble in water is preferably 50 vol % or less, more preferably 30 vol % or less. The expression “polar organic solvent” means an organic solvent having a relative dielectric constant of preferably 8 or more, more preferably 10 or more.
The organic solvents used in the examples and comparative examples are as follows.

As for `CCN1CCN(C)C1=O` [DEI, 1-ethyl-3-methyl-2-imidazolidinone], the “compatibility with water at 60° C.” value was “compatible with water at 60 °C in any ratio”.

On to `CN1CCN(C)C1=O` [DMI, 1,3-dimethyl-2-imidazolidinone], for which the “compatibility with water at 60° C.” value was “compatible with water at 60 °C in any ratio”.

Take `CCOCC(C)OCC(C)OCC` (centres unmarked) [DPDE, dipropylene glycol diethyl ether]: the “solubility in water at 60° C.” value is listed as 5 vol %.

As for `CCCN1CCN(CCC)C1=O` [DPI, 1,3-dipropyl-2-imidazolidinone], the “solubility in water at 60° C.” value is 12 vol %.

As for `COC(C)COC(C)CO` (centres unmarked) [DPM, dipropylene glycol monomethyl ether, reference compound], the “compatibility with water at 60° C.” value was “compatible with water at 60 °C in any ratio”.

With `CCCOC(C)COC(C)CO` (centres unmarked) [DPP, dipropylene glycol monopropyl ether], the “solubility in water at 60° C.” value came to 10 vol %.

As for `CCCCCCCCN1CCCC1=O` [NOP, N-octylpyrrolidone], the “solubility in water at 60° C.” value is reported as 13 vol %.

As for `CCCCOCC(C)O` (centres unmarked) [PB, propylene glycol monobutyl ether], the “solubility in water at 60° C.” value is listed as 6 vol %.
